A melting point compilation (Tetko et al.)

SMILES | melting point
OCCN1CCN(CCO)CC1 | 135 °C
C/C(=N/NC(N)=O)C(C)Cc1ccccc1 (stereo unspecified) | 112 °C
O=C(COC(=O)c1ccccc1)NC(CO)(CO)CO | 126 °C
Cc1c([N+](=O)[O-])c(C)c([N+](=O)[O-])c(C(C)(C)C)c1[N+](=O)[O-] | 110 °C
O=[N+]([O-])c1ccccc1OCCN1CCOCC1 | 44 to 45 °C
CCCCCCCCCCCCOc1ccc(C(C)=O)cc1 | 44 to 47 °C
Cc1cnc(O)c(Br)c1 | 157 °C
ON=Cc1ccccc1O | 56 to 59 °C
CCCCCCCCCCCCCCCCS(=O)(=O)c1ccc(N)cc1 | 115 to 117 °C
NC(=O)c1cnn(CCO)c1N | 239 °C
CCOP(=S)(OCC)Oc1cnccn1 | -1.7 °C
O=[N+]([O-])c1ccsc1Cl | 51 to 52 °C
CC12CCC(=O)C(O)=C1CCC1C2CCC2(C)C1CCC2(C)O (stereo unspecified) | 170 °C
O=Cc1c(O)cc(Cl)cc1Cl | 52 °C
COC(=O)c1ccc(C(N)=NO)cc1 | 167 to 168 °C
O=c1c2ccccc2[nH]c(=S)n1-c1ccc(F)cc1 | 337 to 339 °C
NC(Cc1n[nH]c2ccccc12)C(=O)O (stereo unspecified) | 240 °C
CC#CC(C)C | -110 °C
O=C(O)c1cnc(O)nc1-c1ccncc1 | 309 to 310 °C

SMILES | melting point
CCCCCCCCCCCCCCCCCCS(=O)(=O)Cl | 58 °C
Cn1cnc(S(N)(=O)=O)c1 | 222 to 224 °C
O=CC(C=O)c1ccncc1 | 320 °C
COC(=O)C(Cl)C(Cl)c1cccc(C(Cl)C(Cl)C(=O)OC)c1 (stereo unspecified) | 131 °C
N#CCSc1ccc(F)cc1 | 34 °C
CCc1cc(Cc2cc(CC)c(N)c(CC)c2)cc(CC)c1N | 88 to 91 °C
c1ccc2c(c1)Cc1c-2ccc2ccccc12 | 190 °C
CC(=O)Oc1ccc([N+](=O)[O-])cc1[N+](=O)[O-] | 69 to 75 °C
NNC(=S)NCCN1CCCCC1 | 121 to 123 °C
Cc1nn(C)c2ncnc(N)c12 | 190 °C
Oc1cc(O)ncn1 | 300 °C
OCCOCCOCCOCCOCCOCCO | 6 °C
CCOC(=O)/C(C(N)=S)=C1/NN=C(c2ccccc2O)O1 | 128 °C
FC(F)(F)c1nnc(S)n1/N=C/c1ccccc1 | 233 °C
CC(=O)Nc1ccc(Br)c(Cl)c1 | 125 to 128 °C
COc1cc(F)c(OC)cc1F | 121 °C
O=C(O)c1cc(F)ccc1C(F)(F)F | 82 °C
CCOC(=O)Cn1cnc(Cl)c1Cl | 65 to 67 °C
CC(=O)/C(=N\Nc1ccc(Cl)cc1)C(=O)C(F)(F)F | 124 °C

SMILES | melting point
c1ccc(Cn2cccc2)cc1 | 15 °C
C1CSC1 | -73.2 °C
C=Cc1cccc(C=C)c1 | -52.3 °C
O=C(O)C1CCCC1C(=O)O (stereo unspecified) | 160 °C
FC1CCCCC1 | 13 °C
O=C(O)c1cc(I)c(I)c(I)c1 | 292 °C
CC1(C)CC(=O)NC(=O)C1 | 145 °C
CCCCCCOC(=O)c1ccccc1C(=O)OCCCCCC | -58 °C
COC(=O)c1scc(Br)c1O | 80 °C
O=C(O)C(O)C(=O)O | 157 °C
ON=C1CCCCCCC1 | 37 °C
CNC(=O)CC#N | 82 to 84 °C
CC/C=C\C(C)(C)C | -137 °C
O=C(CBr)c1cccc([N+](=O)[O-])c1 | 94 °C
CC12CCC(O)CC1CCC1C2CC(O)C2(C)C(C3=CC(=O)OC3)CCC12O (stereo unspecified) | 222 °C
O=C(O)CC(CC(=O)O)c1ccc(C(F)(F)F)cc1 | 166 to 168 °C
O=C(CCl)c1ccc(C(=O)C(Cl)Cl)cc1 | 147 °C
COc1cc2c(cc1OC)C13CCN4CC5=CCOC6CC(=O)N2C1C6C5CC43 (stereo unspecified) | 178 °C

The next lines start with the values.

melting point | SMILES
113 to 118 °C | O=C(C=Cc1ccc(F)cc1)c1ccc(F)cc1
58 to 60 °C | Cc1ccc(CCl)c2ccccc12
71.5 °C | Cc1ccc([N+](=O)[O-])c2ccccc12
96 to 97 °C | O=[N+]([O-])c1c(Cl)c(Cl)c(Cl)c(Cl)c1NCc1ccccc1
165 to 167 °C | COC(=O)CCC(C)C1CCC2C3C(OC(C)=O)CC4CC(=O)CCC4(C)C3CC(=O)C12C (stereo unspecified)
170 to 172 °C | CC(=O)OC1CCC2(C)C(=CCC3C2CCC2(C)C3CCC2C2(CBr)OCCO2)C1 (stereo unspecified)
64 °C | CC1CCC(C(C)C)C(OC(=O)C#Cc2ccccc2)C1 (stereo unspecified)
175 °C | c1ccc(C(c2ccccc2)(c2ccccc2)N2CCOCC2)cc1
158 to 160 °C | Sc1nnc(-c2ccc(Cl)cc2Cl)n1Cc1ccco1
259 °C | O=C1c2ccccc2C(=O)c2c(O)c(O)cc(O)c21
222 to 223 °C | O=C(Nc1cccc2cc(OC(=O)c3ccccc3)ccc12)c1ccccc1
182 °C | CC(C(=O)O)C(O)(c1ccccc1)c1ccccc1 (stereo unspecified)
228 °C | CN(C)C(=O)C(CCN1CCC(O)(c2ccc(Cl)cc2)CC1)(c1ccccc1)c1ccccc1
205 °C | Cc1ccc(C2C(C#N)=C(N)Oc3c2c(C(F)(F)F)nn3-c2ccccc2)cc1 (stereo unspecified)
141 °C | N#CC1(c2ccccc2)Cc2ccccc2C(=O)O1 (stereo unspecified)
138 °C | Cc1ccc2c(-c3ccccc3)nc(=O)n(C(C)C)c2c1
126 °C | Cc1cc(Sc2cc(C)c(O)c(C(C)(C)C)c2)cc(C(C)(C)C)c1O
113 °C | CC1CC(OC(=O)C(O)c2ccccc2)CC(C)(C)N1C (stereo unspecified)

melting point | SMILES
110 to 114 °C | COc1cc2c(cc1OC)C(CC#N)NCC2 (stereo unspecified)
134 to 138 °C | Cc1nc2scc(-c3ccccc3)c2c(=O)n1NC(=O)c1cccc(C(F)(F)F)c1
385 °C | O=C1c2cccc([N+](=O)[O-])c2C(=O)c2cccc([N+](=O)[O-])c21
79.5 to 81 °C | Cn1ccc(-c2ccc(Br)cc2)n1
86 °C | COc1ccc(-n2ncc(C(=O)Cl)c2C)cc1
185 to 187 °C | CC1(C)CC(=O)c2cc(-c3ccccc3)n(-c3ccc(Cl)cc3)c2C1
208 °C | CN1CCc2cc3c(cc2C(=O)Cc2ccc4c(c2C1)OCO4)OCO3
167 °C | O=C1OC(c2ccccc2)=NC1=Cc1ccccc1
166 to 167 °C | COc1ccc2c(c1)CC1(CCC(c3ccc(C(C)(C)C)cc3)CC1)C2=O (stereo unspecified)
155 °C | O=c1[nH]n(C2C=CC3C4C=CC(C4)C32)c(=O)n1-c1ccccc1 (stereo unspecified)
163 °C | Cc1ccc2c(c1)C(=O)c1cc(C)ccc1C2=O
212 °C | O=[N+]([O-])c1ccc(N=Nc2ccc([N+](=O)[O-])cc2)cc1
72 to 77 °C | Nc1ccccc1CCc1ccccc1N
93 °C | Cc1ccc2c3c(c4c(c2c1)CCCC4)CCCC3
171 °C | BrC(=Cc1ccccc1)c1ccc(Br)c2c(Br)cccc12
80 °C | Cc1ccc(C(c2ccc(C)o2)c2ccccc2[N+](=O)[O-])o1
88 to 92 °C | O=Cc1ccc(OCc2ccccc2)c(OCc2ccccc2)c1
